Nine molecules from ChEMBL document CHEMBL5584280, “Optimization of Novel Pyrido-pyridazinone Derivatives as FER Tyrosine Kinase Inhibitors, Leading to the Potent DS08701581” (ACS Med Chem Lett, 2024) can be followed below.

For data set [1], the system named is BaF3. Description: Inhibition of cell viability in mouse BaF3 cells incubated for 3 days by Cell Titer Glo assay. In kind it is functional. Conditions: BaF3, 72 h, time 3 day. (In general: In ATP-based viability assays light output follows the ATP content of the culture.)
Data set [2] relates to BaF3. Put plainly: Inhibition of cell viability in mouse BaF3 cells expressing FER incubated for 3 days by Cell Titer Glo assay. In kind it is functional. Particulars: BaF3, 72 h, time 3 day.
A short description of data set [3]: Toxicity in BALB/cAJcl-nu/nu mouse xenografted with […] mouse BaF3 cells expressing FER at 6.25 to 100 mg/kg, po qd for 10 days. The data set is classed as organism-based. Particulars: in vivo, 240 h, dose 6.25-100 mg/kg, time 10 day. Background: In xenograft studies the graft and the host belong to different species.
For data set [4], the target named is Tyrosine-protein kinase SYK (Homo sapiens) (UniProt P43405). Put plainly: Inhibition of SYK (unknown origin) at 200 nM in presence of ATP by kinase profiling analysis relative to control.
Data set [5] deals with BaF3. Description: Antitumor activity against […] mouse BaF3 cells expressing FER xenografted in BALB/cAJcl-nu/nu mouse administered orally once a day for 4 days. In kind it is functional, cell-based. Conditions: dose 6.25-100 mg/kg, route po, time 4.0 day.
Data set [6] is described as follows: Total plasma clearance in BALB/cAnNCrlCrlj mouse at 1 mg/kg, iv. The data set is classed as ADME, organism-based.
In data set [7] the target is Serine/threonine-protein kinase Chk2 (Homo sapiens) (UniProt O96017). Put plainly: Inhibition of CHEK2 (unknown origin) at 200 nM in presence of ATP by kinase profiling analysis relative to control.
Chain of Serine/threonine-protein kinase Chk2 (Homo sapiens) (O96017 whole entry): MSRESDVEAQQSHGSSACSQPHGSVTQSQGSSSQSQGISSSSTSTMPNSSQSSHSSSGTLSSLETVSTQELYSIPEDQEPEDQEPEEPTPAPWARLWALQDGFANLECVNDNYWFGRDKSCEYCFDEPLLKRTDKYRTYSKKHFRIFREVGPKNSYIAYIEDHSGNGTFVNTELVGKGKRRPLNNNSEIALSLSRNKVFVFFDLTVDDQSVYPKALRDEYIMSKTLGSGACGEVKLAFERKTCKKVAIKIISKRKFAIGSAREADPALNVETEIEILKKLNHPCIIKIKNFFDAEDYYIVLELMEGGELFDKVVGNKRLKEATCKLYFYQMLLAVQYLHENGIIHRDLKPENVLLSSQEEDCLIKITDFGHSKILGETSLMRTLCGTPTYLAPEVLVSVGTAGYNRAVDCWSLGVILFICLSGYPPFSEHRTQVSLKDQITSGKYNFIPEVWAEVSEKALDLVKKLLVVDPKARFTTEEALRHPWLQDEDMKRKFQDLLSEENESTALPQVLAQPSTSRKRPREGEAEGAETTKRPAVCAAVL
For data set [8], the target named is Protein-tyrosine kinase 2-beta (Homo sapiens) (UniProt Q14289). Put plainly: Inhibition of PTK2B (unknown origin) at 200 nM in presence of ATP by kinase profiling analysis relative to control.
Chain of Protein-tyrosine kinase 2-beta (Homo sapiens) (Q14289 whole entry, looked up): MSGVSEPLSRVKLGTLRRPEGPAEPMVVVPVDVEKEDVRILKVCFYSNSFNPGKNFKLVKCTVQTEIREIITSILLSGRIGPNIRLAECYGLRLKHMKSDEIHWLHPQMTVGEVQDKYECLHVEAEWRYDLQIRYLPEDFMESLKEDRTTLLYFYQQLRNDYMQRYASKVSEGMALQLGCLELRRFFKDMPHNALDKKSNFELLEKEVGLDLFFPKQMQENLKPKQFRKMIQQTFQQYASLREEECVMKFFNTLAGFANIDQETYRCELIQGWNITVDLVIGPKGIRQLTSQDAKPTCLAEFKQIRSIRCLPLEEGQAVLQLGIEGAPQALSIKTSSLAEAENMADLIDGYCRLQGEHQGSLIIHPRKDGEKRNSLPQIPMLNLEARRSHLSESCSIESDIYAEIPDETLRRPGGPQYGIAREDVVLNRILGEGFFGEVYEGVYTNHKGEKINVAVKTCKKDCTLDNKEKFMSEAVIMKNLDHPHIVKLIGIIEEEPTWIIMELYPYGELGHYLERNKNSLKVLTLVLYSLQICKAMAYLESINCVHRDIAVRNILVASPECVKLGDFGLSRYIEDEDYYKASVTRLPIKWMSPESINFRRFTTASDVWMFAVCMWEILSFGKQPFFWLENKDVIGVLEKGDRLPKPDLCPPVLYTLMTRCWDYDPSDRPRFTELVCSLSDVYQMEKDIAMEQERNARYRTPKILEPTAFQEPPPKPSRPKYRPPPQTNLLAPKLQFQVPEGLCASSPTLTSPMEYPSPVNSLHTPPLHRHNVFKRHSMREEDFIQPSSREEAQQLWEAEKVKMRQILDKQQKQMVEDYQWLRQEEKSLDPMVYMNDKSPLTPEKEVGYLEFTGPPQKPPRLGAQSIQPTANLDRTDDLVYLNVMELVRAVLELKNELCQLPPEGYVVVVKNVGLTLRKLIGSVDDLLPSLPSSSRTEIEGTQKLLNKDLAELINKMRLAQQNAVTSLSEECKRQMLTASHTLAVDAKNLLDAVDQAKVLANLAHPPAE
The target in data set [9] is T1, Testis-specific serine/threonine-protein kinase 1 (Homo sapiens) (UniProt Q9BXA7).
T1 sequence (whole entry): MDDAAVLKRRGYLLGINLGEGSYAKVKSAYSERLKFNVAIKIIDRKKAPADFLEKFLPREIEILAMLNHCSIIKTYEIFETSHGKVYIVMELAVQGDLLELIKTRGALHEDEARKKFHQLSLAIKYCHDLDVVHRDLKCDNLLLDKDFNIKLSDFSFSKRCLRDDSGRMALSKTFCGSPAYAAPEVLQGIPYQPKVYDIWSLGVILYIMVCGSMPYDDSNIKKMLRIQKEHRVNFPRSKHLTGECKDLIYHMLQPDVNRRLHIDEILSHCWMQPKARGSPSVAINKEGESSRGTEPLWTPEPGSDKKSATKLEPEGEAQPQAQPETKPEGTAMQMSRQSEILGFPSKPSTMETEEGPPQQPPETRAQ
Description: Inhibition of TSSK1B (unknown origin) at 200 nM in presence of ATP by kinase profiling analysis relative to control.

A short description of data set [10]: Protein binding in BALB/c mouse serum at 10 ug/ml incubated for 4 hrs by equilibrium dialysis. In kind it is ADME, cell-free. Conditions: at 10 µg/mL, read-out: PB (converted). (In equilibrium dialysis free small molecules cross a membrane that holds back macromolecules.)
The target of data set [11] is Receptor-type tyrosine-protein kinase FLT3 (Homo sapiens) (UniProt P36888). Put plainly: Inhibition of FLT3 (unknown origin) at 200 nM in presence of ATP by kinase profiling analysis relative to control.
Chain of Receptor-type tyrosine-protein kinase FLT3 (Homo sapiens) (P36888 whole entry): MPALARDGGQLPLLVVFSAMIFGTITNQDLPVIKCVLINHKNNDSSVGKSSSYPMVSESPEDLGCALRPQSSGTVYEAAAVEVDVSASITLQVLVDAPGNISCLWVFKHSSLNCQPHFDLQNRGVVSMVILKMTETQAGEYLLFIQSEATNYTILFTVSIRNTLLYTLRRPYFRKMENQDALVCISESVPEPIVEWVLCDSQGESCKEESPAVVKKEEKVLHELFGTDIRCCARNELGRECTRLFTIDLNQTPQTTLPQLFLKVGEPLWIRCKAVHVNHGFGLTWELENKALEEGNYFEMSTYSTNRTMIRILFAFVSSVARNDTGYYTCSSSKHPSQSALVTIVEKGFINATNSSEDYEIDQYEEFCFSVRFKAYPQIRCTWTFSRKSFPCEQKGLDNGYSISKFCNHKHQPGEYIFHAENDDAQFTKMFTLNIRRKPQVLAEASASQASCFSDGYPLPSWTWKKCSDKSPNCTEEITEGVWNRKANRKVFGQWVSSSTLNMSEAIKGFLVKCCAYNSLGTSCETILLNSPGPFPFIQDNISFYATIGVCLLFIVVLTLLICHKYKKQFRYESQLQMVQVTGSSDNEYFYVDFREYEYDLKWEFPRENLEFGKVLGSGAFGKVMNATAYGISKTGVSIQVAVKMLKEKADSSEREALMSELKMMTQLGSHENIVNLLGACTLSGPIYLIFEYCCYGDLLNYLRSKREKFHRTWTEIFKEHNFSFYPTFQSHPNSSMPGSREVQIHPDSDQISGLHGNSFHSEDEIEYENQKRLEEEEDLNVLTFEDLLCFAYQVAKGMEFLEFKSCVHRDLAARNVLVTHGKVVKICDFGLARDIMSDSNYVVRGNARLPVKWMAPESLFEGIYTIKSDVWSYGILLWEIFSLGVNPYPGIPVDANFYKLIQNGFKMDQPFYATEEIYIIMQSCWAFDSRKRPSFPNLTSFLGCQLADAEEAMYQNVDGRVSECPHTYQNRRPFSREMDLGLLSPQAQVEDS
Data set [12] deals with ALK tyrosine kinase receptor (Homo sapiens) (UniProt Q9UM73). Put plainly: Inhibition of ALK (unknown origin) at 200 nM in presence of ATP by kinase profiling analysis relative to control.
Chain of ALK tyrosine kinase receptor (Homo sapiens) (Q9UM73 19-1620 limits assumed): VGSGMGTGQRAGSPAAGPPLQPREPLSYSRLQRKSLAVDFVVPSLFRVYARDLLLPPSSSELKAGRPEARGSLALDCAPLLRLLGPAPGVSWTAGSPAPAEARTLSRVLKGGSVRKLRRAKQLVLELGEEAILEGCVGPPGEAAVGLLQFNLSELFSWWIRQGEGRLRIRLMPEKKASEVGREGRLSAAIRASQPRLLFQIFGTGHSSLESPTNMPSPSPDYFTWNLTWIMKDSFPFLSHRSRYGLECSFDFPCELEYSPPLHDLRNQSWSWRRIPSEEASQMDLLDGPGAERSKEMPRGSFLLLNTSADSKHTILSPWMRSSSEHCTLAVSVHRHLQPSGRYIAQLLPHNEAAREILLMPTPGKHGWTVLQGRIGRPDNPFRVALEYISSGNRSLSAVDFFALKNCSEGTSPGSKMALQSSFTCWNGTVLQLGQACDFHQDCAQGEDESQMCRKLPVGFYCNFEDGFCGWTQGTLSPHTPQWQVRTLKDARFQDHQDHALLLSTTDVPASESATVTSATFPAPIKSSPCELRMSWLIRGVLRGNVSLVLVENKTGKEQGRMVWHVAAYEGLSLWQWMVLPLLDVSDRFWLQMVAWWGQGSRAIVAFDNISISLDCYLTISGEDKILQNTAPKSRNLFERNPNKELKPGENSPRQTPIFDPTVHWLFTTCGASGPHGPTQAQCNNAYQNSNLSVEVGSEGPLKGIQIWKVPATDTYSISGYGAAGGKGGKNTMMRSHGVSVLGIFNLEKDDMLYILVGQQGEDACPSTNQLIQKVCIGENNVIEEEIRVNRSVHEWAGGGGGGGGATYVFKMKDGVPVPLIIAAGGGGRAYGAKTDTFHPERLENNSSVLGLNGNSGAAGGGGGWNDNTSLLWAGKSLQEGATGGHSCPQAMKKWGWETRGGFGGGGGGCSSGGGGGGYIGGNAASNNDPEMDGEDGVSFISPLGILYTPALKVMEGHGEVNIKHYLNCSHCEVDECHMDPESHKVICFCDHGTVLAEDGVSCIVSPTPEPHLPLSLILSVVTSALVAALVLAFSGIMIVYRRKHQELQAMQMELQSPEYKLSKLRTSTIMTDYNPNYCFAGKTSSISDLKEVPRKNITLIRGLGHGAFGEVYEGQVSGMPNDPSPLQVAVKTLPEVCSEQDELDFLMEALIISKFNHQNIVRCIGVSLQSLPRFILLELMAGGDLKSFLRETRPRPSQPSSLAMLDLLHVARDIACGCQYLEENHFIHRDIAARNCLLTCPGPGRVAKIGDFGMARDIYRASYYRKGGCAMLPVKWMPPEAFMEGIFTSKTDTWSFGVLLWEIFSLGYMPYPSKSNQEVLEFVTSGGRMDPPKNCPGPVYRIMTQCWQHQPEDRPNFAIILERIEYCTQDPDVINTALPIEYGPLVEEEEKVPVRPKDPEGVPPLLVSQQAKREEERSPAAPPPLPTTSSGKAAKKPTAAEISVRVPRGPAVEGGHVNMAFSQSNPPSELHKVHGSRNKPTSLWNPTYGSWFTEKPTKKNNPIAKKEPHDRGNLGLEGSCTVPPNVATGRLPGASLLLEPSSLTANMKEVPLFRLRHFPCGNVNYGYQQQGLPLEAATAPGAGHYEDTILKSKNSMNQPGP
Data set [13] is described as follows: Solubility of compound in buffer at pH 6.8 incubated for 4 hrs by HPLC-UV analysis. The data set is classed as physicochemical.
For data set [14], the target named is Leukocyte tyrosine kinase receptor (Homo sapiens) (UniProt P29376). Put plainly: Inhibition of LTK (unknown origin) at 200 nM in presence of ATP by kinase profiling analysis relative to control.
The nature of data set [15]: Solubility of compound in FaSSIF incubated for 4 hrs by HPLC-UV analysis. The data set is classed as ADME.
Data set [16] in a line: Metabolic stability in CD-1 mouse liver microsomes assessed as compound remaining at 1 uM incubated for 30 mins by LC-MS/MS analysis. The data set is classed as ADME, Microsome. Particulars: read-out: Stability.
Data set [17] in a line: Permeability co-efficient of compound at 5 uM incubated for 4 hrs by PAMPA. The data set is classed as ADME. Particulars: read-out: Peff.
Data set [18] is described as follows: AUC in BALB/cAnNCrlCrlj mouse at 10 mg/kg, po. In kind it is ADME, organism-based. Particulars: in vivo.
A short description of data set [19]: Cmax in BALB/cAnNCrlCrlj mouse at 10 mg/kg, po. The data set is classed as ADME, organism-based. Conditions: in vivo.
Data set [20] can be described thus: Oral bioavailability in BALB/cAnNCrlCrlj mouse at 10 mg/kg. The data set is classed as ADME, organism-based. Conditions: in vivo.
Data set [21] concerns the target Cyclin-dependent kinase 2 (Homo sapiens) (UniProt P24941). Put plainly: Inhibition of CDK2 (unknown origin) at 200 nM in presence of ATP by kinase profiling analysis relative to control.
For data set [22], the target named is Mitogen-activated protein kinase kinase kinase kinase 4 (Homo sapiens) (UniProt O95819). Put plainly: Inhibition of MAP4K4 (unknown origin) at 200 nM in presence of ATP by kinase profiling analysis relative to control.
For the next data set, the species on record is Homo sapiens. Description: Inhibition of NTRK1 (unknown origin) at 200 nM in presence of ATP by kinase profiling analysis relative to control.
The target of data set [23] is Tyrosine-protein kinase Fer (Homo sapiens, UniProt P16591). Put plainly: Inhibition of N-terminal His-tagged recombinant human FER using FL-Peptide22 as substrate incubated for 90 mins in presence of ATP.
Data set [24] has as its target Macrophage colony-stimulating factor 1 receptor (Homo sapiens) (UniProt P07333). Description: Inhibition of CSF1R (unknown origin) at 200 nM in presence of ATP by kinase profiling analysis relative to control.
Data set [25] can be described thus: Toxicity in BALB/cAJcl-nu/nu mouse xenografted with […] mouse BaF3 cells expressing FER at 100 mg/kg, po qd for 10 days. The data set is classed as organism-based. Conditions: in vivo, 240 h, time 10 day.
Data set [26] has as its target Proto-oncogene tyrosine-protein kinase ROS (Homo sapiens) (UniProt P08922). Put plainly: Inhibition of ROS1 (unknown origin) at 200 nM in presence of ATP by kinase profiling analysis relative to control.
Data set [27] deals with Mast/stem cell growth factor receptor Kit (Homo sapiens) (UniProt P10721). Description: Inhibition of KIT (unknown origin) at 200 nM in presence of ATP by kinase profiling analysis relative to control.

Converted amounts (≈) assume the structure as drawn.

Chain of Macrophage colony-stimulating factor 1 receptor (Homo sapiens) (P07333 whole entry): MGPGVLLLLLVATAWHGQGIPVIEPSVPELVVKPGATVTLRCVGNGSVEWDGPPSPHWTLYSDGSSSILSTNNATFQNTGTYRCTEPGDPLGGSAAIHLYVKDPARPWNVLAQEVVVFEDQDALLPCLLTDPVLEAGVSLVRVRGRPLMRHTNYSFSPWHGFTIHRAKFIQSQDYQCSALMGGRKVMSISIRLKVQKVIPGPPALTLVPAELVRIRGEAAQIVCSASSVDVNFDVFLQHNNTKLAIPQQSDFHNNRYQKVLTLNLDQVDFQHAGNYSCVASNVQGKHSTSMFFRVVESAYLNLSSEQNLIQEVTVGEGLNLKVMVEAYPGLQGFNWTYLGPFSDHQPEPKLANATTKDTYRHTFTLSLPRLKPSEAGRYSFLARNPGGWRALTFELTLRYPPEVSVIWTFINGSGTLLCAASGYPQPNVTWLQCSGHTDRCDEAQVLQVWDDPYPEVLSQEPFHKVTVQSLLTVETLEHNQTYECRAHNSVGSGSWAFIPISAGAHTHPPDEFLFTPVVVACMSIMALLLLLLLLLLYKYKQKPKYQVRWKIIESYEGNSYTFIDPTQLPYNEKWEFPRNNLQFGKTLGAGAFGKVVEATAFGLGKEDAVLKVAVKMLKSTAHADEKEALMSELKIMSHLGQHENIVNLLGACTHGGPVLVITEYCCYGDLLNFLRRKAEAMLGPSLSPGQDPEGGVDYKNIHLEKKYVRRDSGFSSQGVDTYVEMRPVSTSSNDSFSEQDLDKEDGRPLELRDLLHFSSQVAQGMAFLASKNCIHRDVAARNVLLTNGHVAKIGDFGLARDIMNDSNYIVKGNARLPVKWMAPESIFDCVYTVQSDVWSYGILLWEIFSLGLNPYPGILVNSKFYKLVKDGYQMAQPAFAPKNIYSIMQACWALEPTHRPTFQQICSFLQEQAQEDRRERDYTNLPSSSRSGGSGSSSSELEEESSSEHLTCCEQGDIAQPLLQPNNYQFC

As a reminder, the GI50 is the concentration that inhibits growth by half. A low value points to more potent growth inhibition. In the case of `Cc1cccc(Nc2nc(NC3CCCCC3N)c(F)c3cn[nH]c(=O)c23)c1` (racemic), the results for the GI50 with BaF3 [1] and in the data set on BaF3 [2] were 1230 nM and 30 nM, respectively.
The matching figures for `CN1CCN(c2cccc(Nc3nc(NC4CCCCC4N)c(F)c4cn[nH]c(=O)c34)c2)CC1` (racemic): 630 nM and 76 nM.
The matching figures for `N[C@H]1CCCC[C@H]1Nc1nc(Nc2cccc(N3CCOCC3)c2)c2c(=O)[nH]ncc2c1F`: 1200 nM and 4.7 nM.
In general, inhibition refers to the percentage by which the read-out fell short of the control. By clearance is commonly meant the volume of plasma or blood freed of the substance per unit of time. High values mean efficient removal, low ones inefficient removal. Usually solubility stands for how much of the substance goes into solution per volume. For orientation: AUC means the area under the concentration-time curve, a measure of exposure. Read a low AUC as less exposure. The Cmax is the highest concentration seen after dosing. By bioavailability is commonly meant dose-corrected exposure relative to a reference, in per cent. Low values mean little systemic uptake, high ones much systemic uptake. `C[C@@H]1CN(c2cccc(Nc3nc(N[C@@H]4CCCC[C@@H]4N)c(C#N)c4cn[nH]c(=O)c34)c2)C[C@H](C)O1`: the Activity entry in data set [3] is “Non-Toxic”; in the data set on BaF3 [5] it was “Dose-Dependent Effect”. For the same molecule, the inhibition in data set [4], in data set [7], in data set [8], in data set [9], in [11] and in data set [12] was greater than 90% each time. Moreover, the inhibition in data set [14] was greater than 90%. This molecule also had a clearance in [6] of 13 mL/min/kg. Moreover, in data set [10], the fraction unbound at 4 h, 10 ug/ml is 0.03. For the same molecule, the solubility at 4 h in data set [13] was 6.7 µg/mL (≈ 13.7 µM); in data set [15], 30 µg/mL (≈ 61.4 µM). Besides, in [16], the remaining at 0.5 h, 1 µM is 85%. Further, the Papp at 4 h, 5 µM in data set [17] was greater than 50 ×10⁻⁶ cm/s. This molecule also gave an AUC in [18] of 8200 ng·h/mL. The highest level in data set [19] (Cmax) was 630 ng/mL. Besides, the GI50 worked out at 1000 nM in the data set with BaF3 [1] and 0.67 nM with BaF3 [2]. In [20], this molecule returned a bioavailability of 65%.
What is called IC50 is the concentration that inhibits the measured activity by half. Take `Cc1cccc(Nc2nc(NC3CCCCC3N)c(C#N)c3cn[nH]c(=O)c23)c1` (centres undefined): the inhibition in [21], in data set [4], in data set [7], in data set [8], in data set [9] and in [22] was greater than 90% in each case. The inhibition (in data set [11]; in data set [12]; in the data set listed under Homo sapiens; in data set [24]; in [26]; in data set [27]) was greater than 90% each time. This molecule showed a clearance in data set [6] of 12 mL/min/kg. The fraction unbound at 4 h, 10 ug/ml in [10] was 0.01. For the same molecule, the solubility at 4 h in [13] was 0.9 µg/mL (≈ 2.31 µM); in [15], 2.1 µg/mL (≈ 5.39 µM). The remaining at 0.5 h, 1 µM in [16] was determined as 96%. Besides, the Papp at 4 h, 5 µM in data set [17] is greater than 50 ×10⁻⁶ cm/s. Besides, the 50% inhibitory concentration (IC50) in data set [23] is 0.49 nM. The AUC in [18] is 4800 ng·h/mL. For the same molecule, the Activity result in data set [25] is “Toxic”. This molecule showed a Cmax in data set [19] of 360 ng/mL. The GI50 in the data set with BaF3 [1] came out at 220 nM; with BaF3 [2], 1.9 nM. This molecule registered a bioavailability in [20] of 34%.
On to `CCOc1cccc(Nc2nc(NC3CCCCC3N)c(F)c3cn[nH]c(=O)c23)c1` (racemic), for which the GI50 with BaF3 [1] was determined as 1600 nM; in the data set on BaF3 [2] it was 50 nM.
The matching figures for `Cn1cc(Nc2nc(NC3CCCCC3N)c(F)c3cn[nH]c(=O)c23)cn1` (racemic): 340 nM and 57 nM.
Taken in the same sequence, the figures for `N#Cc1c(N[C@@H]2CCCC[C@@H]2N)nc(Nc2cccc(N3CC4(COC4)C3)c2)c2c(=O)[nH]ncc12` were 362 nM and 0.36 nM.
Take `N#Cc1c(N[C@@H]2CCCC[C@@H]2N)nc(Nc2cccc(N3CCOCC3)c2)c2c(=O)[nH]ncc12`: the figures for the GI50 in the data set with BaF3 [1] and in the data set with BaF3 [2] were 310 nM and 1.2 nM, respectively.
